Source: article PMC10714390, “Quinoline Compounds Targeting the c-Ring of ATP Synthase Inhibit Drug-Resistant Pseudomonas aeruginosa” (ACS Infectious Diseases, 2023)

Tested on: drug-resistant P. aeruginosa BAA 2109
Test: Antimicrobial susceptibility (broth microdilution), BAA 2109
Format: cell-based, Pseudomonas aeruginosa
Settings: for MIC: Pseudomonas aeruginosa, BAA2109, read-out: antibacterial activity (MIC) BAA 2109; for antibacterial activity in words, BAA 2109: summary of Table 1
Method: The following are general steps, unless otherwise noted. All steps were completed using aseptic techniques. All media and glassware were sterilized via an autoclave at 121 °C for 60 min. All agitation occurred at 160 rpm in a temperature-controlled console shaker (Excella E25) at 37 °C. Full-strength tryptic soy broth (TSB) was made by dissolving 30 g of BD Bacto TSB powder in 1 L of deionized water. Purchased and acquired bacterial strains used were E. coli (ATCC 25922), P. aeruginosa (ATCC 9027), drug-resistant P. aeruginosa from ATCC Panel MP-23 (BAA 2108, BAA 2109, BAA 2110), and P. aeruginosa efflux knockout GKCW120 (PΔ6)[6] provided by Zgurskaya and co-workers at the University of Oklahoma.
Susceptibility testing was performed in biological triplicate using the broth microdilution method as outlined by the Clinical and Laboratory Standards Institute. […] Briefly, to each well, 1 μL of compound in DMSO, 89 μL of TSB, and 10 μL of bacterial inoculum, grown from a single colony in 10 mL of TSB for 4–6 h, were added. After incubation for 12–15 h at 37 °C, absorbance at 590 nm was read on a Biotek Synergy HTX Multimode plate reader. Data were processed by background subtracting the media absorbance and then normalizing the data to full bacterial growth with the vehicle only. MIC is defined as the lowest concentration of antibiotic or antibiotic/adjuvant combination that achieves ≥85% growth inhibition, which corresponds to no visible growth.

| SMILES | MIC [µg/mL] | antibacterial activity in words, BAA 2109 |
| --- | --- | --- |
| CN(C)Cc1ccc(CNCc2cc3ccccc3nc2SCc2ccccc2)cc1 [Compound 5, 1-(4-((((2-(Benzylthio)quinolin-3-yl)methyl)amino)methyl)phenyl)-N,N-dimethylmethanamine] | > 128 | inactive |
| CSc1nc2ccccc2cc1CNCc1ccc(CN(C)C)cc1 [Compound 4, N,N-Dimethyl-1-(4-((((2-(methylthio)quinolin-3-yl)methyl)amino)methyl)phenyl)methanamine] | 256 | able to inhibit |
